Measured values: ChEMBL document CHEMBL5614450, “SAR Study of 4,8-Disubstituted Pyrimido[5,4-d]pyrimidines Exhibiting Antitrypanosomal and Antileishmanial Activity” (ACS Med Chem Lett, 2024)

Legend:
Leishmania infantum [1] = assay: Anti-leishmanial activity against promastigote stage of Leishmania infantum MHOM/MA/67/ITMAP-263 assessed as inhibition of parasite growth at 10 uM incubated for 72 hrs by resazurin-dye based assay; assay type: functional
CYP3A4 = CYP3A4 (Homo sapiens, UniProt P08684); assay: Inhibition of human CYP3A4 expressed in insect cell microsomes at 10 uM preincubated for 20 mins followed by NADP+ and substrate addition and measured after 10 mins by fluorescence based analysis; assay type: ADME, Microsome; settings: recombinant human CYP3A4 expressed in insect cell microsomes, time 30 min
[2] = Cytotoxicity against human THP-1 cells assessed as reduction in cell viability incubated for 72 hrs by MTT assay; assay type: toxicity, cell-based
Trypanosoma brucei = assay: Anti-trypanosomal activity against trypomastigote blood stage of Trypanosoma brucei Lister 427 assessed as inhibition of parasite growth incubated for 72 hrs by resazurin-dye based assay; assay type: functional, organism-based; settings: Lister 427, 72 h
[3] = Cytotoxicity against human HEK293 cells assessed as reduction in cell viability at 10 uM incubated for 24 hrs by Cell-Titer Glo luminescence assay; assay type: toxicity, cell-based; settings: read-out: INH
[4] = Selectivity index, ratio of CC50 for cytotoxicity against human THP-1 cells to IC50 for anti-trypanosomal activity against trypomastigote blood stage of Trypanosoma brucei Lister 427; assay type: toxicity, cell-based; settings: read-out: Ratio CC50/IC50
[5] = Cytotoxicity against human A549 cells assessed as reduction in cell viability at 10 uM incubated for 24 hrs by Cell-Titer Glo luminescence assay; assay type: toxicity, cell-based; settings: read-out: INH
hERG (KCNH2) = hERG (KCNH2) (Homo sapiens, UniProt Q12809); assay: Displacement of tracer from hERG extracted from membrane at 10 uM incubated for 2 hrs by fluorescence polarization assay; assay type: toxicity, cell membranes; settings: hERG membrane preparation, probe tracer (not named)
[6] = Selectivity index, ratio of CC50 for cytotoxicity against human THP-1 cells to IC50 for anti-leishmanial activity against promastigote stage of Leishmania infantum MHOM/MA/67/ITMAP-263; assay type: toxicity, cell-based; settings: read-out: Ratio CC50/IC50
Leishmania infantum [7] = assay: Anti-leishmanial activity against promastigote stage of Leishmania infantum MHOM/MA/67/ITMAP-263 assessed as inhibition of parasite growth incubated for 72 hrs by resazurin-dye based assay; assay type: functional, organism-based; settings: MHOM/MA/67/ITMAP-263, 72 h
Leishmania infantum [8] = assay: Anti-leishmanial activity against luciferase expressing intracellular amastigote stage of Leishmania infantum MHOM/MA/67/ITMAP-263 infected in human THP-1 cells assessed as inhibition of parasite growth at 10 uM incubated for 72 hrs by Steady-Glo luciferase assay; assay type: functional; settings: MHOM/MA/67/ITMAP-263, THP-1

hERG (KCNH2), sequence (Q12809 whole entry): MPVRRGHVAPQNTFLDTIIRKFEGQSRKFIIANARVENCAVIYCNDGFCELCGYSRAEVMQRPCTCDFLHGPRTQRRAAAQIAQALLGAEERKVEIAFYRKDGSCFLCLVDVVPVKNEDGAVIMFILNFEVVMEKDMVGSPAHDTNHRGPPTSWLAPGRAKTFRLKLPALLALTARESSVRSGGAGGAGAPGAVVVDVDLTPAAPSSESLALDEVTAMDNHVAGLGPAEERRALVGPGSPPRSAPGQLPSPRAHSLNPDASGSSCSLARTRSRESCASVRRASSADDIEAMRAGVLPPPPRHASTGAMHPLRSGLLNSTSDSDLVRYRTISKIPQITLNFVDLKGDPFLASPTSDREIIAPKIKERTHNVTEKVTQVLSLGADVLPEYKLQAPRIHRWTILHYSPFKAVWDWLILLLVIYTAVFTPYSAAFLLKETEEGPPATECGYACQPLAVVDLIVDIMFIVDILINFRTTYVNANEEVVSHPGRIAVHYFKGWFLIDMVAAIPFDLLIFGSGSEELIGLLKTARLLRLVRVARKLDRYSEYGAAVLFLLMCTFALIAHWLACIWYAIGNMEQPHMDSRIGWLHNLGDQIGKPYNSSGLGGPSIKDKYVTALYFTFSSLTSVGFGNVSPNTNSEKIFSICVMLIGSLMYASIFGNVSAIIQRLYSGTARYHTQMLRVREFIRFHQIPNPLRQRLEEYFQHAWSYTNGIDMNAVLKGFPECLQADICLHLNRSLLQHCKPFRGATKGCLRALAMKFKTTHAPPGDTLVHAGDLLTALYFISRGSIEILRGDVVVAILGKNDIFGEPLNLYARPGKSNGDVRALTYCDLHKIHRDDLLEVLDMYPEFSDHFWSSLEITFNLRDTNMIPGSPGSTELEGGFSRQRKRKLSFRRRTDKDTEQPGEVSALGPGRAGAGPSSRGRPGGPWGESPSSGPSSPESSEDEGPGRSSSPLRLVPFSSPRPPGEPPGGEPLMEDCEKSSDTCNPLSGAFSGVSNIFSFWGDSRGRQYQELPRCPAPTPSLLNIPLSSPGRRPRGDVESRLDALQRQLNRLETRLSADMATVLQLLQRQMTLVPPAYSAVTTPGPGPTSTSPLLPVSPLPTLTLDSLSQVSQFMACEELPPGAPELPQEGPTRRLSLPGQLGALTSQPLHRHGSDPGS
CYP3A4, sequence (P08684 whole entry): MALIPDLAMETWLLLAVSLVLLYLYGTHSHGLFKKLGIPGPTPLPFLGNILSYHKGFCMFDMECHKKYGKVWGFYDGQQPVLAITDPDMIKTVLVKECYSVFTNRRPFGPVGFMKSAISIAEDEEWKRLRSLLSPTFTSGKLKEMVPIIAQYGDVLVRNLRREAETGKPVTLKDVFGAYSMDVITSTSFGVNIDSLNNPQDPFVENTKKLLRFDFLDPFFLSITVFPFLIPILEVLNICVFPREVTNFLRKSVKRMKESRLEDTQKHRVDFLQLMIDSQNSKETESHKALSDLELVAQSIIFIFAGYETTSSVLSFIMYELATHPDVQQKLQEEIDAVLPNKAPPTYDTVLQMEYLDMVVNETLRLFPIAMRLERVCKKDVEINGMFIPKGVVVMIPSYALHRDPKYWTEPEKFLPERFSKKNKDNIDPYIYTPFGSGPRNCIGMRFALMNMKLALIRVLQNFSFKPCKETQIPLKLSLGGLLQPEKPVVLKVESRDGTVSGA

| SMILES | inhibition at 10 µM (Leishmania infantum [1]) [%] | inhibition at 10 min, 10 µM (CYP3A4) [%] | CC50 at 72 h [2] [nM] | IC50 (Trypanosoma brucei) [nM] | cytotoxicity at 24 h, 10 µM [3] [%] | selectivity ratio [4] | cytotoxicity at 24 h, 10 µM [5] [%] | inhibition at 2 h, 10 µM (hERG (KCNH2)) [%] | selectivity ratio [6] | IC50 (Leishmania infantum [7]) [nM] | inhibition at 10 µM (Leishmania infantum [8]) [%] |
| --- | --- | --- | --- | --- | --- | --- | --- | --- | --- | --- | --- |
| COc1cc(/C=N/Nc2ncnc3c(Nc4ccc(F)c(Cl)c4)ncnc23)cc(OC)c1OC | 20 | 30 | > 10000 | 8720 | 14 | > 1 | 14 | 5 |  |  |  |
| COc1cccc(Nc2ncnc3c(NN)ncnc23)c1 | 99 | 65 | > 50000 | 110 | 12 | > 438 | 16 | 14 | 178 | 280 | < 0 |
| COc1ccc(/C=N/Nc2ncnc3c(Nc4ccc(F)c(Cl)c4)ncnc23)cc1O | 13 | 20 | > 10000 | 5810 | -3 | > 2 | -9 | -7 |  |  |  |
| COc1cccc(Nc2ncnc3c(N/N=C/c4cc(O)c(O)c(O)c4)ncnc23)c1 | 95 | 0 | > 100000 | 2710 | 8 | > 37 | -6 | 34 | > 221 | 450 | 4 |
| Oc1cc(/C=N/Nc2ncnc3c(Nc4ccc(F)c(Cl)c4)ncnc23)cc(O)c1O | 0 | 0 | > 10000 | 380 | 24 | > 26 | 27 | 62 |  |  |  |
| COc1cc(/C=N/Nc2ncnc3c(Nc4ccc(Cl)c(C(F)(F)F)c4)ncnc23)cc(OC)c1O | 9 | 19 | > 10000 | 5630 | -1 | > 2 | -2 | 3 |  |  |  |
| N=C(N)c1ccc(OCCCCCOc2ccc(C(=N)N)cc2)cc1 [PENTAMIDINE] |  |  | < 10000 | 3 |  |  |  |  |  |  |  |
| COc1cc(/C=N/Nc2ncnc3c(Nc4ccc(OC(F)(F)F)cc4)ncnc23)cc(OC)c1OC | 24 | 11 | > 10000 | 390 | 2 | > 26 | 6 | 21 |  |  |  |
| Oc1cc(/C=N/Nc2ncnc3c(Nc4ccc(Cl)c(C(F)(F)F)c4)ncnc23)cc(O)c1O | < 0 | 11 | > 10000 | 2760 | -2 | > 4 | -4 | 49 |  |  |  |
| Oc1ccc(/C=N/Nc2ncnc3c(Nc4ccc(Cl)c(C(F)(F)F)c4)ncnc23)cc1O | 5 | 0 | > 10000 | 430 | 3 | > 23 | 15 | 29 |  |  |  |
| Oc1ccc(/C=N/Nc2ncnc3c(Nc4ccc(OC(F)(F)F)cc4)ncnc23)cc1O | 52 | 0 | > 10000 | 350 | 24 | > 29 | 18 | 21 | 1 | 14900 | < 0 |
| COc1ccc(/C=N/Nc2ncnc3c(Nc4ccc(OC(F)(F)F)cc4)ncnc23)cc1O | 60 | 0 | > 10000 | 260 | 10 | > 39 | 38 | 61 | 4 | 2540 | < 0 |
| COc1cc(/C=N/Nc2ncnc3c(Nc4ccc(Cl)c(C(F)(F)F)c4)ncnc23)cc(OC)c1OC | 22 | 20 | > 10000 | 1760 | -2 | > 6 | -7 | 24 |  |  |  |
| Oc1cc(/C=N/Nc2ncnc3c(Nc4ccc(OC(F)(F)F)cc4)ncnc23)cc(O)c1O | 5 | 21 | > 10000 | 160 | 7 | > 64 | 9 | 30 |  |  |  |
| COc1ccc(/C=N/Nc2ncnc3c(Nc4ccc(Cl)c(C(F)(F)F)c4)ncnc23)cc1O | 12 | 27 | > 10000 | 1440 | -3 | > 7 | 3 | 7 |  |  |  |
| COc1cc(/C=N/Nc2ncnc3c(Nc4ccc(F)c(Cl)c4)ncnc23)ccc1O | 19 | 24 | > 50000 | 260 | 13 | > 196 | 2 | 7 |  |  |  |
| COc1cc(/C=N/Nc2ncnc3c(Nc4ccc(F)c(Cl)c4)ncnc23)cc(OC)c1O | < 0 | 32 | > 100000 | 5830 | 11 | > 17 | 5 | 38 |  |  |  |
| Oc1ccc(/C=N/Nc2ncnc3c(Nc4ccc(F)c(Cl)c4)ncnc23)cc1O | 13 | 25 | > 50000 | 590 | -6 | > 85 | -6 | 7 |  |  |  |
| NNc1ncnc2c(Nc3ccc(OC(F)(F)F)cc3)ncnc12 | 18 | 20 | > 10000 | 180 | 17 | > 55 | 17 | 30 |  |  |  |
